The text below walks through data of patent US20100081679A1, “DIAMINOPYRIMIDINES AS FUNGICIDES” (Bayer CropScience AG, priority 2007, published 2010).

A short description of the first data set: logP determination via retention times, calibrated with unbranched alkan-2-ones. The data set is classed as physicochemical. As to conditions: method **: HPLC reversed-phase C 18, temperature 43° C.; mobile phase 0.1% aqueous phosphoric acid and acetonitrile; linear gradient 10% to 95% acetonitrile.
As to `Clc1cnc(Nc2cccc(N3CCCC3)c2)nc1NC1CC1` [compound 619], the logP is 2.23**. With `Brc1cnc(Nc2cccc(N3CCCC3)c2)nc1NC1CC1` [compound 621], the logP was 2.38**. The same measure, in the same setting: with `O=C1CCCN1c1cc(F)cc(Nc2ncc(Cl)c(NC3CC3)n2)c1` [compound 625] the figure was 1.83**; with `CC(C)NC(=O)Nc1ccc(Nc2ncc(Cl)c(NC3CC3)n2)cc1` [compound 632], 1.32**. Still for that read-out and setting: with `COc1ccc(Nc2ncc(C(F)(F)F)c(NC3CC3)n2)cc1` [compound 641] the figure was 2.41**. On to `CC(=O)Nc1ccc(Nc2ncc(C(F)(F)F)c(NC3CC3)n2)cc1Cl` [compound 648], for which the logP is recorded as 2.27**. Regarding `CC(=O)Nc1cccc(Nc2ncc(C(F)(F)F)c(NC3CC3)n2)c1` [compound 649], the logP was 1.77**.

Still in this data set, the particulars now being: method *: HPLC reversed-phase C 18, temperature 40° C.; mobile phase 0.1% aqueous formic acid and acetonitrile; linear gradient 10% to 95% acetonitrile.
Turning to `CS(=O)(=O)Cc1cccc(Nc2ncc(Cl)c(NCC3CC3)n2)c1` [compound 566], the logP was 1.38*. Consider `Cc1cnc(Nc2cccc(N3CCCC3=O)c2)nc1NC1CC1` [compound 567], for which the logP is reported as 1.14*. With `COc1cc(Nc2ncc(Br)c(NC3CC3)n2)ccc1F` [compound 568], the logP was 2.05*. Still for that read-out and setting: with `O=C1CCCCN1c1ccc(Nc2ncc(Cl)c(NC3CC3)n2)cc1` [compound 569] the figure was 1.47*; with `CN1CCN(c2cccc(Nc3ncc(Br)c(NC4CC4)n3)c2)C1=O` [compound 570], 1.58*. In the case of `N#Cc1cccc(Nc2ncc(F)c(NC3CC3)n2)c1` [compound 571], the logP was 1.61*. Still for that read-out and setting: with `COc1cc(Nc2ncc(F)c(NC3CC3)n2)ccc1NC(C)=O` [compound 572] the figure was 1.17*; with `COc1cccc(Nc2ncc(F)c(NC3CC3)n2)c1` [compound 573], 1.51*. On to `N#Cc1ccc(Nc2ncc(F)c(NC3CC3)n2)cc1` [compound 575], for which the logP is reported as 1.73*. Consider `Fc1cnc(Nc2cccc(OC(F)(F)F)c2)nc1NC1CC1` [compound 576], for which the logP is 2.33*. Same read-out and setting: with `CN(C)S(=O)(=O)c1ccc(Nc2ncc(F)c(NC3CC3)n2)cc1` [compound 578] the figure was 1.68*; with `CSc1ccc(Nc2ncc(F)c(NC3CC3)n2)cc1Cl` [compound 579], 2.13*; with `CC(=O)Nc1ccc(Nc2ncc(F)c(NC3CC3)n2)cc1Cl` [compound 580], 1.32*. Still for that read-out and setting: with `CCN(C(C)=O)c1ccc(Nc2ncc(F)c(NC3CC3)n2)cc1` [compound 581] the figure was 1.38*; with `CC(=O)N(C)c1ccc(Nc2ncc(F)c(NC3CC3)n2)cc1` [compound 582], 1.23*; with `O=C(Nc1ccc(Nc2ncc(F)c(NC3CC3)n2)cc1)C(F)(F)F` [compound 583], 1.58*. For `CNC(=O)c1ccc(Nc2ncc(F)c(NC3CC3)n2)cc1` [compound 584], the logP is given as 1.05*. The same measure, in the same setting: with `CNC(=O)c1cccc(Nc2ncc(F)c(NC3CC3)n2)c1` [compound 585] the figure was 1.05*. As for `CSc1cccc(Nc2ncc(F)c(NC3CC3)n2)c1` [compound 586], the logP is 1.73*. The same measure, in the same setting: with `CSc1ccc(Nc2ncc(F)c(NC3CC3)n2)cc1` [compound 587] the figure was 1.68*; with `O=S(=O)(c1cccc(Nc2ncc(F)c(NC3CC3)n2)c1)N1CCCCC1` [compound 588], 1.61*. The same measure, in the same setting: with `CC(C)(C)C(=O)Cc1ccc(Nc2ncc(F)c(NC3CC3)n2)cc1` [compound 589] the figure was 1.92*; with `CC(=O)c1ccc(Nc2ncc(F)c(NC3CC3)n2)cc1` [compound 590], 1.53*; with `CC(=O)c1cccc(Nc2ncc(F)c(NC3CC3)n2)c1` [compound 591], 1.45*. Same read-out and setting: with `O=C1OCCN1c1ccc(Nc2ncc(F)c(NC3CC3)n2)cc1` [compound 592] the figure was 1.23*; with `O=C1CCCN1c1ccc(Nc2ncc(F)c(NC3CC3)n2)cc1` [compound 593], 1.35*; with `COC(=O)Nc1ccc(Nc2ncc(F)c(NC3CC3)n2)cc1` [compound 594], 1.28*. As to `CCOC(=O)Nc1ccc(Nc2ncc(F)c(NC3CC3)n2)cc1` [compound 595], the logP is 1.46*. With `CCOC(=O)Nc1cccc(Nc2ncc(F)c(NC3CC3)n2)c1` [compound 596], the logP is listed as 1.53*. Still for that read-out and setting: with `CNC(=O)Nc1cccc(Nc2ncc(F)c(NC3CC3)n2)c1` [compound 597] the figure was 1.28*. Turning to `COC(=O)Nc1cccc(Nc2ncc(F)c(NC3CC3)n2)c1` [compound 598], the logP is reported as 1.37*.

Take `O=C1CCCN1c1cccc(Nc2ncc(F)c(NC3CC3)n2)c1` [compound 599]: the logP is reported as 1.37*. Still for that read-out and setting: with `CC(C)(CF)C(=O)Nc1cccc(Nc2ncc(F)c(NC3CC3)n2)c1` [compound 600] the figure was 1.55*; with `CC(=O)Nc1cc(Nc2ncc(F)c(NC3CC3)n2)ccc1C` [compound 601], 1.15*.

Turning to `Fc1cc(F)cc(Nc2ncc(Br)c(NC3CC3)n2)c1` [compound 602], the logP is given as 3.35*. The same measure, in the same setting: with `Fc1cc(F)cc(Nc2ncc(Cl)c(NCC3CC3)n2)c1` [compound 603] the figure was 3.42*; with `COc1cccc(Nc2ncc(C#N)c(NC3CC3)n2)c1` [compound 604], 2.48*; with `CS(=O)(=O)c1ccc(Nc2ncc(C#N)c(NC3CC3)n2)cc1` [compound 605], 1.92*. `COC(=O)Cc1cccc(Nc2ncc(C#N)c(NC3CC3)n2)c1` [compound 606]: the logP was 2.39*. For `CCC(=O)Nc1cccc(Nc2ncc(C#N)c(NC3CC3)n2)c1` [compound 607], the logP is listed as 1.94*.

Turning to `CNC(=O)c1cccc(Nc2ncc(C#N)c(NC3CC3)n2)c1` [compound 608], the logP was 1.64*. With `CSc1cccc(Nc2ncc(C#N)c(NC3CC3)n2)c1` [compound 609], the logP was 2.92*. The same measure, in the same setting: with `CC(=O)c1cccc(Nc2ncc(C#N)c(NC3CC3)n2)c1` [compound 610] the figure was 2.23*; with `CNC(=O)Oc1cccc(Nc2ncc(C#N)c(NC3CC3)n2)c1` [compound 611], 1.92*; with `COC(=O)Nc1cccc(Nc2ncc(C#N)c(NC3CC3)n2)c1` [compound 612], 2.06*.

Consider `N#Cc1cnc(Nc2ccc3c(c2)CC(=O)N3)nc1NC1CC1` [compound 613], for which the logP is on record as 1.5*.

Take `CN(C)C(=O)c1cccc(Nc2ncc(C#N)c(NC3CC3)n2)c1` [compound 614]: the logP is reported as 1.83*. The same measure, in the same setting: with `CC(C)(C)OC(=O)NCc1ccc(Nc2ncc(C#N)c(NC3CC3)n2)cc1` [compound 615] the figure was 2.77*. On the same count and under the same terms, with `N#Cc1cnc(Nc2ccc(F)cc2)nc1NC1CC1` [compound 616] the figure was 2.58*; with `CN(C)S(=O)(=O)c1cccc(Nc2ncc(C#N)c(NC3CC3)n2)c1` [compound 617], 2.36*. Turning to `CN1CCN(c2cccc(Nc3ncc(Cl)c(NCC4CC4)n3)c2)C1=O` [compound 618], the logP is on record as 1.58*. Same read-out and setting: with `Fc1cccc(Nc2ncc(Cl)c(NC3CC3)n2)c1` [compound 620] the figure was 3.15*. As to `O=C(NCC(F)(F)F)c1cccc(Nc2ncc(Br)c(NC3CC3)n2)c1` [compound 622], the logP is listed as 1.91*. As to `COC(c1cccc(Nc2ncc(C(F)(F)F)c(NC3CC3)n2)c1)C(F)(F)F` (centres unmarked) [compound 624], the logP was 3.74*. Still for that read-out and setting: with `CSc1ccc(Nc2ncc(Cl)c(NCC3CC3)n2)cc1Cl` [compound 626] the figure was 3.15*. The same measure, in the same setting: with `C#Cc1cccc(Nc2ncc(C(F)(F)F)c(NC3CC3)n2)c1` [compound 627] the figure was 3.36*; with `O=C(NC1CC1)c1cccc(Nc2ncc(Br)c(NC3CC3)n2)c1` [compound 628], 1.49*; with `O=C(NC1CC1)c1cccc(Nc2ncc(Cl)c(NC3CC3)n2)c1` [compound 629], 1.39*. On the same count and under the same terms, with `O=C(NCC(F)(F)F)c1cccc(Nc2ncc(Cl)c(NC3CC3)n2)c1` [compound 630] the figure was 1.8*. On to `CCNC(=O)c1cccc(Nc2ncc(Cl)c(NC3CC3)n2)c1` [compound 631], for which the logP is listed as 1.35*. With `CC(C)c1cccc(Nc2ncc(Cl)c(NC3CC3)n2)c1` [compound 633], the logP is 2.63*. Same read-out and setting: with `CCc1cccc(Nc2ncc(Cl)c(NC3CC3)n2)c1` [compound 634] the figure was 2.35*. Regarding `COc1cc(Nc2ncc(C(F)(F)F)c(NC3CC3)n2)ccc1F` [compound 635], the logP was 2.99*. In the case of `O=C1CCCN1c1cccc(Nc2ncc(I)c(NC3CC3)n2)c1` [compound 637], the logP is reported as 1.6*. As to `N#Cc1cccc(Nc2ncc(C(F)(F)F)c(NC3CC3)n2)c1` [compound 638], the logP is 2.95*. Turning to `COc1cc(Nc2ncc(C(F)(F)F)c(NC3CC3)n2)ccc1NC(C)=O` [compound 639], the logP is listed as 1.85*.

Regarding `COc1cccc(Nc2ncc(C(F)(F)F)c(NC3CC3)n2)c1` [compound 640], the logP is reported as 2.73*. The same measure, in the same setting: with `COc1ccc(Nc2ncc(C(F)(F)F)c(NC3CC3)n2)cc1` [compound 641] the figure was 2.21*;. Still for that read-out and setting: with `N#Cc1ccc(Nc2ncc(C(F)(F)F)c(NC3CC3)n2)cc1` [compound 642] the figure was 2.99*; with `FC(F)(F)Oc1cccc(Nc2ncc(C(F)(F)F)c(NC3CC3)n2)c1` [compound 643], 4.08*. Still for that read-out and setting: with `CS(=O)(=O)c1ccc(Nc2ncc(C(F)(F)F)c(NC3CC3)n2)cc1` [compound 644] the figure was 2.36*; with `CN(C)S(=O)(=O)c1ccc(Nc2ncc(C(F)(F)F)c(NC3CC3)n2)cc1` [compound 645], 2.84*. For the compound `CSc1ccc(Nc2ncc(C(F)(F)F)c(NC3CC3)n2)cc1Cl` [compound 646], the logP is 4.08*. As for `CC(C)(C)C(=O)Nc1ccc(Nc2ncc(C(F)(F)F)c(NC3CC3)n2)cc1` [compound 647], the logP is recorded as 2.46*. With `CC(=O)Nc1ccc(Nc2ncc(C(F)(F)F)c(NC3CC3)n2)cc1Cl` [compound 648], the logP is on record as 2.18*;. The same measure, in the same setting: with `CC(=O)Nc1cccc(Nc2ncc(C(F)(F)F)c(NC3CC3)n2)c1` [compound 649] the figure was 1.78*;.
